# Reference: ChEMBL document CHEMBL3872207, “Aromatic heterocyclic esters of podophyllotoxin exert anti-MDR activity in human leukemia K562/ADR cells via ROS/MAPK signaling pathways” (Eur J Med Chem, 2016)
# Legend:
# K562/Adr [1] = experiment: Induction of apoptosis in human K562/ADR cells assessed as viable cells at 0.1 uM pretreated with MAPK inhibitor SP600125 for 1 hr followed by compound addition after 48 hrs by Annexin V-APC/7-AAD staining based flow cytometry (reference value: 95.31%); type: functional; conditions: read-out: Activity
# K562/Adr [2] = experiment: Induction of apoptosis in human K562/ADR cells assessed as ratio of cleaved caspase-3 to beta-actin level at 0.1 uM measured after 48 hrs by Western blot analysis (reference value: 0.06); type: functional
# K562 = experiment: Resistance index, ratio of IC50 for human K562/ADR cells to IC50 for human K562 cells; type: functional
# [3] = Downregulation of CDK2 expression in human K562/ADR cells assessed as ratio of CDK2 to beta-actin level at 0.1 uM pretreated with MAPK inhibitor U0126 for 1 hr followed by compound addition measured after 48 hrs by Western blot analysis (reference value: 0.65); type: functional, cell-based
# [4] = Downregulation of P-gp expression in human K562/ADR cells assessed as ratio of P-gp to beta-actin level at 0.1 uM measured after 48 hrs by Western blot analysis (reference value: 0.63); type: functional, cell-based
# K562/Adr [5] = experiment: Induction of apoptosis in human K562/ADR cells assessed as late apoptotic cells at 0.1 uM pretreated with MAPK inhibitor U0126 for 1 hr followed by compound addition after 48 hrs by Annexin V-APC/7-AAD staining based flow cytometry (reference value: 1.69%); type: functional; design: scale not given: the % may be the effect or the level left
# [6] = biological target: c-Jun N-terminal kinase, JNK (Homo sapiens) (UniProt P45983+P53779+P45984); experiment: Induction of JNK phosphorylation in human K562/ADR cells assessed as ratio of phosphorylated JNK to beta-actin level at 0.1 uM pretreated with MAPK inhibitor SB203580 for 1 hr followed by compound addition after 48 hrs by Western blotting method (reference value: 0.46); type: cell-based
# K562/Adr [7] = experiment: Induction of ERK1/2 phosphorylation in human K562/ADR cells assessed as ratio of phosphorylated ERK1/2 to beta-actin level at 0.1 uM pretreated with ROS scavenger NAC for 2 hrs followed by compound addition after 48 hrs by Western blotting method (reference value: 0.22); type: cell-based
# K562/Adr [8] = experiment: Induction of apoptosis in human K562/ADR cells assessed as ratio of cleaved caspase-9 to beta-actin level at 0.1 uM pretreated with MAPK inhibitor SP600125 for 1 hr followed by compound addition measured after 48 hrs by Western blot analysis (reference value: 0.05); type: functional
# [9] = Downregulation of CyclinB1 expression in human K562/ADR cells assessed as ratio of CyclinB1 to beta-actin level at 0.1 uM pretreated with ROS scavenger NAC for 2 hrs followed by compound addition measured after 48 hrs by Western blot analysis (reference value: 0.77); type: functional, cell-based
# K562/Adr [10] = experiment: Induction of apoptosis in human K562/ADR cells assessed as necrotic cells at 0.1 uM after 48 hrs by Annexin V-APC/7-AAD staining based flow cytometry (reference value: 0.26%); type: functional
# [11] = biological target: MAP kinase p38 (Homo sapiens) (UniProt O15264+Q15759+Q16539+P53778); experiment: Induction of P38 phosphorylation in human K562/ADR cells assessed as ratio of phosphorylated p38 to beta-actin level at 0.1 uM pretreated with MAPK inhibitor U0126 for 1 hr followed by compound addition after 48 hrs by Western blotting method (reference value: 0.25); type: cell-based
# K562/Adr [12] = experiment: Induction of apoptosis in human K562/ADR cells assessed as early apoptotic cells at 0.1 uM pretreated with MAPK inhibitor U0126 for 1 hr followed by compound addition after 48 hrs by Annexin V-APC/7-AAD staining based flow cytometry (reference value: 2.74%); type: functional; design: scale not given: the % may be the effect or the level left
# [13] = Antiproliferative activity against human K562/ADR cells measured after 72 hrs by CCK8 assay; type: functional, cell-based
# K562/Adr [14] = experiment: Induction of apoptosis in human K562/ADR cells assessed as ratio of cleaved caspase-3 to beta-actin level at 0.1 uM pretreated with MAPK inhibitor SP600125 for 1 hr followed by compound addition measured after 48 hrs by Western blot analysis (reference value: 0.06); type: functional
# K562/Adr [15] = experiment: Induction of ERK1/2 phosphorylation in human K562/ADR cells assessed as ratio of phosphorylated ERK1/2 to beta-actin level at 0.1 uM measured after 48 hrs by Western blotting (reference value: 0.22); type: cell-based
# K562/Adr [16] = experiment: Induction of apoptosis in human K562/ADR cells assessed as late apoptotic cells at 0.1 uM pretreated with MAPK inhibitor SP600125 for 1 hr followed by compound addition after 48 hrs by Annexin V-APC/7-AAD staining based flow cytometry (reference value: 1.69%); type: functional; design: scale not given: the % may be the effect or the level left
# K562/Adr [17] = experiment: Induction of apoptosis in human K562/ADR cells assessed as ratio of cleaved PARP to beta-actin level at 0.1 uM measured after 48 hrs by Western blot analysis (reference value: 0.04); type: functional
# [18] = Downregulation of CDK1 expression in human K562/ADR cells assessed as ratio of CDK1 to beta-actin level at 0.1 uM pretreated with MAPK inhibitor SB203580 for 1 hr followed by compound addition measured after 48 hrs by Western blot analysis (reference value: 0.53); type: functional, cell-based
# K562/Adr [19] = experiment: Induction of apoptosis in human K562/ADR cells assessed as ratio of cleaved caspase-8 to beta-actin level at 0.1 uM pretreated with MAPK inhibitor SB203580 for 1 hr followed by compound addition measured after 48 hrs by Western blot analysis (reference value: 0.07); type: functional
# [20] = Downregulation of P-gp expression in human K562/ADR cells assessed as ratio of P-gp to beta-actin level at 0.1 uM pretreated with MAPK inhibitor SB203580 for 1 hr followed by compound addition measured after 48 hrs by Western blot analysis (reference value: 0.63); type: functional, cell-based
# [21] = Downregulation of CyclinA expression in human K562/ADR cells assessed as ratio of CyclinA to beta-actin level at 0.1 uM pretreated with MAPK inhibitor SB203580 for 1 hr followed by compound addition measured after 48 hrs by Western blot analysis (reference value: 0.64); type: functional, cell-based
# [22] = Downregulation of CyclinB1 expression in human K562/ADR cells assessed as ratio of CyclinB1 to beta-actin level at 0.1 uM pretreated with MAPK inhibitor SP600125 for 1 hr followed by compound addition measured after 48 hrs by Western blot analysis (reference value: 0.77); type: functional, cell-based
# K562/Adr [23] = experiment: Induction of apoptosis in human K562/ADR cells assessed as necrotic cells at 0.1 uM pretreated with MAPK inhibitor SP600125 for 1 hr followed by compound addition after 48 hrs by Annexin V-APC/7-AAD staining based flow cytometry (reference value: 0.26%); type: functional; design: scale not given: the % may be the effect or the level left
# K562/Adr [24] = experiment: Induction of apoptosis in human K562/ADR cells assessed as late apoptotic cells at 0.1 uM after 48 hrs by Annexin V-APC/7-AAD staining based flow cytometry (reference value: 1.69%); type: functional
smiles,measurement,setting,value
COc1cc([C@@H]2c3cc4c(cc3[C@H](OC(=O)c3ccco3)[C@H]3COC(=O)[C@H]23)OCO4)cc(OC)c1OC,viability at 0.1 µM,K562/Adr [1],58.5%
same,Ratio,K562/Adr [2],0.68
same,Ratio IC50,K562,1.28
same,Ratio,[3],0.26
same,Ratio,[4],0.07
same,Activity,K562/Adr [5],31.44%
same,Ratio,[6],0.3
same,Ratio,K562/Adr [7],0.22
same,Ratio,K562/Adr [8],0.47
same,Ratio,[9],0.66
same,Activity,K562/Adr [10],5.49%
same,Ratio,[11],0.21
same,Activity,K562/Adr [12],8.73%
same,IC50,[13],32 nM
same,Ratio,K562/Adr [14],0.51
same,Ratio,K562/Adr [15],0.33
same,Activity,K562/Adr [16],30.33%
same,Ratio,K562/Adr [17],0.84
same,Ratio,[18],0.2
same,Ratio,K562/Adr [19],0.51
same,Ratio,[20],0.34
same,Ratio,[21],0.34
same,Ratio,[22],0.25
same,Activity,K562/Adr [23],3.42%
same,Activity,K562/Adr [24],40.45%
